Common to all, as to type: cell-based
In one experiment the test system is MCF-7. Nature of the experiment: XTT assay, tumor-inhibiting effect in vitro, MCF-7. To be noted: Homo sapiens, MCF7, incubation period 48 hours. The protocol:
(§1) The tumor-inhibiting effect was tested in vitro in the XTT assay with an example of various cell lines. The incubation period was 48 hours (IC50 values in μM).

For the next experiment, the system named is K-562. Kind of experiment: XTT assay, tumor-inhibiting effect in vitro, K-562. Particulars: Homo sapiens, K562, incubation period 48 hours. Here is the method: as §1
Background: Tetrazolium dyes change colour on reduction, which living cells bring about.

A further experiment deals with HCT-15. Nature of the experiment: XTT assay, tumor-inhibiting effect in vitro, HCT-15. To be noted: Homo sapiens, incubation period 48 hours. The protocol:
as §1

The subject of another experiment is HT-29. Kind of experiment: XTT assay, tumor-inhibiting effect in vitro, HT-29. Particulars: Homo sapiens, incubation period 48 hours. The protocol: as §1
In another experiment the test system is CCRF-CEM. Nature of the experiment: XTT assay, tumor-inhibiting effect in vitro, CCRF-CEM. To be noted: Homo sapiens, incubation period 48 hours. Here is the method:
as §1

The next experiment has as its system HCT-116. Nature of the experiment: XTT assay, tumor-inhibiting effect in vitro, HCT-116. Particulars: Homo sapiens, incubation period 48 hours. Here is the method: as §1
Another experiment has as its system SK-MEL-5. Kind of experiment: XTT assay, tumor-inhibiting effect in vitro, SK-MEL-5. To be noted: Homo sapiens, incubation period 48 hours. The protocol:
as §1

The subject of a further experiment is NCI-H226. Nature of the experiment: XTT assay, tumor-inhibiting effect in vitro, NCI-H226. Particulars: Homo sapiens, incubation period 48 hours. The protocol:
as §1

The test system of another experiment is SW-620. Kind of experiment: XTT assay, tumor-inhibiting effect in vitro, SW-620. To be noted: Homo sapiens, incubation period 48 hours. The protocol: as §1
The next experiment deals with SK-MEL-28. Kind of experiment: XTT assay, tumor-inhibiting effect in vitro, SK-MEL-28. Particulars: Homo sapiens, incubation period 48 hours. Here is the method:
as §1

The subject of a further experiment is COLO 205. Nature of the experiment: XTT assay, tumor-inhibiting effect in vitro, COLO 205. Particulars: Homo sapiens, incubation period 48 hours. The protocol: as §1
For another experiment, the system named is NCI-H460. Nature of the experiment: XTT assay, tumor-inhibiting effect in vitro, NCI-H460. Particulars: Homo sapiens, incubation period 48 hours. Here is the method:
as §1

In a further experiment the test system is OVCAR 3. Kind of experiment: XTT assay, tumor-inhibiting effect in vitro, OVCAR 3. Particulars: Homo sapiens, incubation period 48 hours. Here is the method:
as §1

In a further experiment the test system is MOLT-4. Nature of the experiment: XTT assay, tumor-inhibiting effect in vitro, MOLT-4. To be noted: Homo sapiens, incubation period 48 hours. The protocol:
as §1

The results in this text go back to US20060009445A1, “Tumor-inhibiting anellated azepinone derivatives” (Faustus Forschungs CIE. Translational Cancer Research GmbH, priority 2002, published 2006).

One may read the IC50 as the point on the concentration scale where inhibition reaches its midpoint.

For `Oc1ccccc1/C=N/N=C1\Cc2c([nH]c3ccc(Br)cc23)-c2ccccc2N1` [KP1437], the half-inhibitory concentration (IC50) amounted to 10.4 µM in the experiment on MCF-7; 1.56 µM in the experiment with K-562; 0.74 µM in the experiment with HCT-15; 6.61 µM with HT-29; 1.66 µM with CCRF-CEM; 2.56 µM in the experiment with HCT-116. Also, the IC50 in the experiment on SK-MEL-5 was found to be 10 µM; in the experiment on NCI-H226, 7.19 µM; in the experiment on SW-620, 3.83 µM; in the experiment with SK-MEL-28, 7.98 µM; with COLO 205, 5.25 µM; in the experiment with NCI-H460, 9.51 µM. For the same compound, the results for the half-maximal inhibitory concentration (IC50) with OVCAR 3 and in the experiment on MOLT-4 were 6.82 µM and 2.9 µM, respectively.

On to `NC(=S)N/N=C1\Cc2c([nH]c3ccc(Br)cc23)-c2ccccc2N1` [KP 1428], for which the IC50 with MCF-7 was found to be 20.7 µM; with K-562, 48.4 µM; with HCT-15, 24.1 µM; in the experiment on HT-29 it was 9.46 µM; in the experiment on CCRF-CEM, 5.47 µM; in the experiment on HCT-116, 26.4 µM. The IC50 in the experiment with SK-MEL-5 was 19.4 µM; in the experiment on NCI-H226, 30.1 µM; in the experiment on SW-620 it was 22.8 µM; in the experiment on SK-MEL-28, 18.5 µM; with COLO 205, 13.3 µM; with NCI-H460 it was 14.4 µM. Moreover, the IC50 came out at 2.59 µM in the experiment on OVCAR 3 and 2.63 µM in the experiment on MOLT-4.
